Measured values reported in patent publication US20230151432A1, “KIF18A INHIBITORS FOR TREATMENT OF NEOPLASTIC DISEASES” (AMGEN INC., priority 2020, published 2023).

Legend:
[1] = system: human bone marrow mononuclear cells (HBMNC); test: BrdU cell cycle analysis and live cell count in normal cells; format: cell-based
Procedure: (§1) The effect KIF18A inhibitor treatment has on proliferation of normal somatic cells (e.g., not neoplastic cells) was tested by assaying proliferation of human bone marrow mononuclear cells (HBMNCs), primary human foreskin fibroblast cells (hFSF) and human mammary epithelial cells via a 5-bromo-2′-deoxyuridine (BrdU) incorporation assay in which BrdU, an analog of the nucleoside thymidine, is used to identify proliferating cells (Payton et. al., Molecular Cancer Therapeutics, 17(12):2575-85 (2018)). Cells were analyzed on BD LSRFortessa flow cytometer using BD FACSDiva software (BD Biosciences), and post-acquisition data analysis was performed using FSC-Express software (De Novo). The percentage of BrdU positive gated events on the stacked DNA content histograms were reported.
To further examine the effects of KIF18A inhibitor treatment on HBMNC, two normal donors were assessed using the BrdU coupled cell cycle assay and cell count assay (96 hours) was. […] In particular, the amount of BrdU-stained proliferating cells treated with Ispinesib, paclitaxel, or a CDK 4/6 inhibitor (palbociclib) was far less than the amount of vehicle control-treated BrdU-stained cells. […] KIF18A inhibitor treatment was also analyzed for impact on live cell count. After 96 hours, live cells were counted by Vi-CELL XR Cell Viability Analyzer (Beckman Coulter).
To investigate whether KIF18A inhibitors could circumvent this normal cell toxicity barrier, we examined the effects of Compounds C9 and C11 on a panel of cycling normal somatic cell types. First, we treated human bone marrow mononuclear cells (HBMNC) from two normal donors with DMSO, Compound C9 and C11 at 1 μM, ispinesib at 0.05 μM, paclitaxel at 0.05 μM, or palbociclib at 1 μM for 48 h (cell cycle) or 96 h (cell growth).
BrdU and cell cycle analysis. Human bone marrow mononuclear cells (HBMNCs) from two normal donors (#37612, #37534) were cultured for 8 days in defined media as previously described (Payton et al 2018). HBMNCs were seeded in 24-well plate at 1.2×10^6 cells per well in duplicate plates. Cells were treated with DMSO, Compound C9 (1 μM), Compound C11 (1 μM), ispinesib (0.05 μM), paclitaxel ([…]), or palbociclib (1 μM). Cells were collected at 48 h (cell cycle) and 96 h (cell growth). The first set of plates were pulsed with BrdU for 2 h and processing for BrdU cell cycle analysis as previously described (Payton et al 2018). Cells were analyzed on BD LSRFortessa flow cytometer running BD FACSDiva software and post-acquisition data analysis was performed using FSC-Express software. Data was reported for the percentage of BrdU and subG1 gated populations. The second set of plates were collected, and cells counted using Vi-CELL XR Cell Viability Analyzer (Beckman Coulter).

[2] = system: human mammary epithelial cells (HMEC); test: BrdU incorporation assay in normal cells; format: cell-based; conditions: 48 hours
Procedure: as §1

[3] = system: human foreskin fibroblast (hFSF) cells; test: BrdU incorporation assay in normal cells; format: cell-based; conditions: 48 hours
Procedure: as §1

[4] = system: human bone marrow mononuclear cells (HBMNC); test: BrdU cell cycle analysis and live cell count in normal cells; format: cell-based; conditions: 96 h; ispinesib 0.05 μM, paclitaxel 0.05 μM, palbociclib 1 μM
[5] = Tolerability (body weight, blood counts) in tumor-bearing nude mice; format: in vivo, mouse; conditions: 18 days
Procedure: Female athymic nude mice were injected with 5×10^6 cells in 0.1 mL subcutaneously in the right flank. After tumors were established (average tumor volume of 150 mm^3), animals were randomized into 4 treatment groups (vehicle alone, KIF18A inhibitor at 10, 30, or 100 mg/kg) with 10 animals per group and treated orally once per day (PO, QD) starting on day 25 post-tumor implantation. Tumor measurement was calculated from the length, width and height of tumors measured with a PRO-MAX electronic digital caliper (Japan Micrometer Mfg. Co. LTD). The tumor volume was calculated as [L×W×H] and expressed in mm^3. Tumor volume and animal body weight measurements were determined twice per week (study start day 25, study end day 45). A single mouse was removed from the study (KIF18A inhibitor 30 mg/kg group) due to abdominal distention, a finding likely unrelated to compound.
Data was plotted using GraphPad Prism software (V7.0.4), tumor volume and body weight data are expressed as means plus or minus standard error of the mean and plotted as a function of time. Statistical significance of observed differences between growth curves were calculated using SLACR package (v.1.0.3). Statistical significance for tumor regressions were performed by paired Student's t-Test on the initial and final tumor volumes with significant tumor regression p-values (***p≤0.0001) for all three KIF18A inhibitor treatment groups. KIF18A inhibitor dose 10 mg/kg (81% regression, 5 of 10 tumor-free), 30 mg/kg (98% regression, 8 of 9 tumor-free), and 100 mg/kg (97% regression, 7 of 10 tumor-free).
Female athymic nude mice were injected with 5×10^6 OVCAR-8 cells in 0.1 mL subcutaneously in the right flank. […] Tumor volume and animal body weight measurements were determined twice per week (study start day 25, study end day 47). Tumor measurements, formulas, and regression analysis as described above for FIGS. 5A-5B. Data was plotted using GraphPad Prism software (V7.0.4), tumor volume and body weight data are expressed as means plus or minus standard error of the mean and plotted as a function of time. Statistical significance of observed differences between growth curves were calculated using SLACR package (v.1.0.3).
(§2) Data was graphed using GraphPad Prism 7.05.
(§3) Tumor volume and body weight assessment performed as described above. After the final dose on day 36, plasma pharmacokinetic analysis was performed as described above. All data analysis was performed as described above.
(§4) Animals were dosed IP daily with vehicle alone, C9 (50 or 100 mg/kg), or C12 (25 or 50 mg/kg). […] Tumor volume and body weight assessment performed as described above. After the final dose on day 46, plasma pharmacokinetic analysis was performed as described above except blood was drawn by retro-orbital bleed method.

[6] = Terminal plasma pharmacokinetic analysis in tumor-bearing mice; format: in vivo, mouse
Procedure: as §2, §3, §4

OVCAR-3 tumors = test: OVCAR-3 Tumor Xenograft Efficacy Study (IP); conditions: 25 mg/kg IP once daily for 18 consecutive days
Procedure: Mice were injected with human OVCAR-3 cells (5.0×10^6) subcutaneously in the right flank. Animals with established tumors were randomized into four groups (n=10 per group) with average tumor volume of 130 mm^3. […] Treatment started on day 24 post-tumor implantation and treatment terminal on day 42. Tumor volumes and body weights were recorded twice per week using a digital caliper and analytical lab scale, respectively. […] The percentage of tumor growth inhibition (% TGI) was calculated as % TGI relative to vehicle control: % TGI=100−[(Treated−Initial Volume)/(Control−Initial Volume)×100]. The percentage of tumor regression (% TR) was calculated as % TR compared final tumor volume to the initial tumor volume: % TR=100−[(Final Volume)/(Initial Volume)×100]. Data was graphed using GraphPad Prism 7.05. Statistical analysis was performed on treatment groups for tumor growth and blood counts using repeated measures ANOVA and one-way ANOVA, respectively, followed by Dunnett's multiple comparisons test.

[7] = biological target: T1, human KIF18A (residues 1-467) (Homo sapiens, UniProt Q8NI77); test: KIF18A MT-ATPase motor activity, ADP-Glo luminescence assay (Example 19); format: biochemical
T1 construct: human KIF18A (residues 1-467, 4 nM); made in house
Procedure: (§5) A trio of KIF18A inhibitors (Compound C9, Compound C11, and Compound C12) were synthesized and tested in vitro for KIF18A inhibitory activity. […] The values represent mean t SEM from three independent experiments. […] As in vivo studies in mice were planned, the mouse KIF18A inhibitory effects of Compound C9 and C12 were assayed.
(§6) KIF18A compounds C9, C11, C12 were 2-fold serially diluted over a 22-point concentration range in DMSO using 384-well plate (Corning). Recombinant truncated kinesin motor proteins (human KIF18A (residues 1-467, 4 nM), mouse KIF18A (residues 1-467, 4 nM)) were expressed and purified. ADP-Glo luminescence assay (Promega) was used to measure the MT-ATPase motor activity. Porcine brain MTs were procured from Cytoskeleton Inc. Compounds were pre-incubated for <30 min in reaction buffer (15 mM Tris, pH 7.5, 10 mM MgCl2, 0.01% Pluronic F-68, 2% DMSO, 1 μM paclitaxel, 30 μg/mL MTs) with motor proteins at concentrations indicated above, 30 μM ATP was added to initiate the enzymatic reaction for 15 min at room temperature (RT). ADP-Glo reagents were added according to manufactures protocol, the luminescence intensity proportional to ADP present was measured using an EnVision plate reader (Perkin Elmer). Raw luminescence signal data was normalized to POC (percentage of positive control) and then Activity (%) was computed [POC=100×(sample signal−negative control signal)+(positive control signal−negative control signal). Activity (%)=POC−100]. The positive control (enzyme+substrate) and negative control (substrate alone) had equivalent concentrations of DMSO. Curve-fitting and IC50 values were determined by 4-parameter non-linear regression equation (variable slope) using GraphPad Prism 7.05 (GraphPad Software).

[8] = biological target: T2, mouse KIF18A (residues 1-467) (Mus musculus, UniProt Q91WD7); test: as above; format: biochemical
T2 construct: mouse KIF18A (residues 1-467, 4 nM); made in house
Procedure: as §5, §6

MDA-MB-157 cells = test: pH3 and PCM spot EC50 determination; conditions: pH3 and PCM spot EC50 values
OVCAR-8 tumors = test: OVCAR-8 Tumor Xenograft Efficacy Study (IP); format: in vivo, mouse
Procedure: as §4

[9] = OVCAR-3 study, C9 100 mg/kg, C12 25 mg/kg IP daily

T1 sequence (Q8NI77 1-467): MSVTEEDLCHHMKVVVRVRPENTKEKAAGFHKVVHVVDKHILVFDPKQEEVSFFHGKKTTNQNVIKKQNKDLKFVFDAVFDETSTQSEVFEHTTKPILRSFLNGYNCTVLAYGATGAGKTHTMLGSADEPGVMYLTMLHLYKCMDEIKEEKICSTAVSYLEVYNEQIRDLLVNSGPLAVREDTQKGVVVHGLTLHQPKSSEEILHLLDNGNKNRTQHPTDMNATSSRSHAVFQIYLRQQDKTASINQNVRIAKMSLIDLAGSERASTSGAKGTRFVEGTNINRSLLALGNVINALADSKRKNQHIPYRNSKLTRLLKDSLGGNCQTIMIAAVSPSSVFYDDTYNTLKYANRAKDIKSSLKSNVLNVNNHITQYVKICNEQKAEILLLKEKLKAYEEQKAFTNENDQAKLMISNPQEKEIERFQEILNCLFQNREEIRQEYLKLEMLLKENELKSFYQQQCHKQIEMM
T1 sequence (P02550 whole entry partner, the tested form may be a part): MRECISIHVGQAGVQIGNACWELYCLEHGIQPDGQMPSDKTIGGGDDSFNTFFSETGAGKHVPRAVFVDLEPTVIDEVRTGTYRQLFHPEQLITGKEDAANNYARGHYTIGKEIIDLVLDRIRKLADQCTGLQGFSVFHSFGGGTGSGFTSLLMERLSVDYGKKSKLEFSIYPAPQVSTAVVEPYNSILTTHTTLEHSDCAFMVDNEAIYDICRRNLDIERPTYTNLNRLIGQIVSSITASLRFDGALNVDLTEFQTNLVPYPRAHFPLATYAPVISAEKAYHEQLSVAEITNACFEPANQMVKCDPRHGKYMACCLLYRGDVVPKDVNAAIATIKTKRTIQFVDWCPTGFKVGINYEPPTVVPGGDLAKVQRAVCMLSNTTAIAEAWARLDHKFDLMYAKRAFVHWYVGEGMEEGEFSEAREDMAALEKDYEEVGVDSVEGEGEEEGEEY
T1 sequence (P02554 whole entry partner, the tested form may be a part): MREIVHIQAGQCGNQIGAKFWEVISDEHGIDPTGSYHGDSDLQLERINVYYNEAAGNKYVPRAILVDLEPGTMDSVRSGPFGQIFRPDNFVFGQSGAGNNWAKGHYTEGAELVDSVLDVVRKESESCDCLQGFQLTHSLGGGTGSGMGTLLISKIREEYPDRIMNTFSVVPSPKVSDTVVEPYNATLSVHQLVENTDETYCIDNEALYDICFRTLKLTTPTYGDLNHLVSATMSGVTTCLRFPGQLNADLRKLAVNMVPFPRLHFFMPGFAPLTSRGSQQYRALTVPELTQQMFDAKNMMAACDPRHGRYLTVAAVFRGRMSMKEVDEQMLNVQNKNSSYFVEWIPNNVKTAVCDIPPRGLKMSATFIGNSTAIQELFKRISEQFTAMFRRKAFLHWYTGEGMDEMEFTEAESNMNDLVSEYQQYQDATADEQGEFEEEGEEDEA
T2 sequence (Q91WD7 1-467): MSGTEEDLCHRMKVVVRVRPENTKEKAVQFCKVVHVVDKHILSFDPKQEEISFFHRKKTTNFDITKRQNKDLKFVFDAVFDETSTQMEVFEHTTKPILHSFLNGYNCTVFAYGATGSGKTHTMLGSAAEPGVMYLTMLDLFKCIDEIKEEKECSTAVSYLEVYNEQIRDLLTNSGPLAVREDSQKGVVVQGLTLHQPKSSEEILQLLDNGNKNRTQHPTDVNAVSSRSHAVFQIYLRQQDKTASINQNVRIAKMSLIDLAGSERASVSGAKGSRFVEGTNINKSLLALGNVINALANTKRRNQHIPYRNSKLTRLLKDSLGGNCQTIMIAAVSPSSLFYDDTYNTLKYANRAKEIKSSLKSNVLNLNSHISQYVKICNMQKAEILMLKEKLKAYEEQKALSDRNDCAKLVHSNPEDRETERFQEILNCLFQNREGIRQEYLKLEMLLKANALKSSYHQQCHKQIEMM
T2 sequence (P02550 whole entry partner, the tested form may be a part): as the sequence (P02550 whole entry partner, the tested form may be a part) above
T2 sequence (P02554 whole entry partner, the tested form may be a part): as the sequence (P02554 whole entry partner, the tested form may be a part) above

Row | Structure (SMILES) | cell cycle DNA content profiles ([1]; 48 h, C9, C11, palbociclib 1 μM, ispinesib 0.05 μM, paclitaxel) | BrdU incorporation (cell cycle analysis) relative to DMSO/vehicle control ([1]; two normal donors, 48 h, C9, C11, palbociclib 1 μM, ispinesib 0.05 μM, paclitaxel) | BrdU incorporation (cell cycle analysis) relative to DMSO/vehicle control ([1]; two normal donors, 48 h, C9, C11, palbociclib 1 μM, ispinesib 0.05 μM, paclitaxel, listed as ispinesib) | live cell count relative to vehicle control ([1]; two normal donors, 96 hours) | BrdU incorporation relative to DMSO treated cells [2] | BrdU incorporation relative to DMSO treated cells [3] | reduction in cell growth [4] | tolerability (body weight) ([5]; CAL-51 study, C9 100 mg/kg, C12 25 mg/kg IP daily) | monocyte count ([5]; OVCAR-3 study, 25 mg/kg IP daily, p=0.043) | body weight loss or changes in blood counts [5, 9] | tolerability [5, 9] | tolerability (body weight) ([5]; OVCAR-8 study, C9 50 or 100 mg/kg, C12 25 or 50 mg/kg IP daily) | plasma AUC in OVCAR-8 study relative to the other efficacy studies ([6]; at matched doses) | AUC ([6]; nude, mouse, plasma, OVCAR-3 study, 25 mg/kg IP, after the final dose) | tumor regression (OVCAR-3 tumors) | IC50 [7] | IC50 [8] | improvement of cell potency relative to a control compound (MDA-MB-157 cells) | tumor regression (OVCAR-8 tumors; 25 mg/kg IP once daily for 18 consecutive days) | tumor regression (OVCAR-8 tumors; 50 mg/kg IP once daily for 18 consecutive days)
1 | Cc1ccc(C(=O)N(CCCN)[C@@H](c2nc3cc(Cl)ccc3c(=O)n2Cc2ccccc2)C(C)C)cc1 [Ispinesib, reference compound] | marked effects on cell cycle DNA content profiles | far less | clearly cytotoxic | lower cell count | decrease in BrdU incorporation | decrease in BrdU incorporation | ~88% |  |  |  |  |  |  |  |  |  |  |  |  | 
2 | C[C@@H]1CN(c2cccc(NC(=O)c3ccc(NS(=O)(=O)CCO)cc3N3CCC4(CC3)CC4)n2)CCO1 [Compound C12, (R)-4-((2-Hydroxyethyl)sulfonamido)-N-(6-(2-methylmorpholino)pyridin-2-yl)-2-(6-azaspiro[2.5]octan-6-yl)benzamide] |  |  |  |  |  |  |  | well-tolerated | decrease on monocytes | no evidence of body weight loss or changes in blood counts | well-tolerated | well-tolerated | 2.8 fold | 53 µM·h | 46% | 40 nM | 39 nM | > 120 fold | 19% | 75%
